Format in all cases: in vivo
For assay [1], the system named is Rhipicephalus microplus. Kind of assay: Rhipicephalus (Boophilus) microplus injection test (BOOPMI Inj). As to conditions: 168 h, injection into adult engorged female ticks, egg deposition after 7 days, read-out: activity (efficacy: 100% means all eggs are infertile); for pest or weed control at 0.004 mg: application rate 4 μg/tick; for pest or weed control at 0.02 mg: application rate 20 μg/tick. The essentials: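 Five engorged adult female R. microplus ticks injected into the abdomen with 1 μL of compound diluted in DMSO, then kept in a climate chamber. Fertile egg deposition checked after 7 days; eggs without visible fertility held until hatching at about 42 days. Efficacy: 100% = all eggs infertile, 0% = all fertile.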

Assay [2] deals with Rhipicephalus microplus. Kind of assay: Rhipicephalus (Boophilus) microplus in-vitro contact test, larval cattle tick, strain Parkhurst (BOOPMI Cont). Conditions: application rate 5 μg/cm^2 (=500 g/ha), tick larvae, after 48 hours, read-out: activity (efficacy: 100% means all larvae are dead or moribund). The procedure, abridged: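 Acetone solutions dried onto glass tube walls (900 ppm giving 5 μg/cm^2); 20-50 pyrethroid-resistant Parkhurst larvae added per tube and held 48 h at 27° C., 85% relative humidity. Efficacy scored by negative geotaxis as % dead or moribund larvae.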

The test system of assay [3] is Ctenocephalides felis. Description: Ctenocephalides felis oral test (CTECFE Oral). As to conditions: 48 h, read-out: activity (mortality). The protocol:
Ctenocephalides felis—Oral Test (CTECFE Oral) Solvent: dimethyl sulfoxide
To produce a suitable preparation of active compound, 10 mg of active compound are dissolved in 0.5 mL solvent, and the concentrate is diluted with cattle blood to the desired concentration.
Approximately 20 adult unfed cat fleas (Ctenocephalides felis) are placed in flea chambers. The blood chamber, sealed with parafilm on the bottom, are filled with cattle blood supplied with compound solution and placed on the gauze covered top of the flea chamber, so that the fleas are able to suck the blood. The blood chamber is heated to 37° C. whereas the flea chamber is kept at room temperature.
After 2 days mortality in % is determined. 100% means all the fleas have been killed; 0% means none of the fleas have been killed.

For assay [4], the system named is Diabrotica balteata. Description: Diabrotica balteata spray test. As to conditions: 168 h, wheat seeds, larvae, after 7 days, read-out: activity (efficacy: 100% means all seedlings have grown up like in the untreated, uninfected control); for pest or weed control at 32 µg/disc, 100 g/ha: application rate 100 g/ha (=32 μg/well); for pest or weed control at 160 µg/disc, 500 g/ha: application rate 500 g/ha (=160 μg/well). The procedure, abridged:
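Wheat seedlings, germinated 1 day on agar, were sprayed with compound in acetone/DMF diluted in water containing emulsifier, then infested with 10-20 Diabrotica balteata larvae. After 7 days efficacy in % was scored: 100% means seedlings grew like the untreated, uninfected control; 0% means none grew.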

In assay [5] the test system is Myzus persicae. Kind of assay: Myzus persicae oral test. Conditions: 120 h, read-out: activity (mortality). The protocol:
Myzus persicae—Oral Test Solvent: 100 parts by weight acetone
To produce a suitable preparation of active compound, 1 part by weight of active compound is mixed with the stated amount of solvent, and the concentrate is diluted with water to the desired concentration.
50 μL compound solution is filled in microtiter plates and 150 μL IPL41 insect medium (33%+15% sugar) is added to obtain a total volume of 200 μL per well. Afterwards the plates are sealed with parafilm through which a mixed population of the green peach aphid (Myzus persicae) can suck on the compound preparation.
After 5 days mortality in % is determined. 100% means all aphids have been killed and 0% means none of the aphids have been killed.

In assay [6] the test system is Spodoptera frugiperda. Description: Spodoptera frugiperda spray test. As to conditions: in Zea mays, 168 h, read-out: activity (mortality). The procedure, abridged:
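Maize leaf sections were sprayed with compound formulated in acetone/DMF and diluted in water containing 1000 ppm emulsifier. Dried leaves were infested with fall armyworm larvae, and percent mortality was scored after 7 days.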

For assay [7], the system named is Aedes aegypti strain MONHEIM. Description: Aedes aegypti test (AEDSAE surface treatment & contact assay). Conditions: exposure 30 minutes, 24 hours after contact, read-out: efficacy (mortality); for mortality at 4 mg/m2: surface concentration 4 mg/m^2, glazed tile; for mortality at 20 mg/m2: surface concentration 20 mg/m^2, glazed tile. The protocol: Aedes aegypti Test (AEDSAE Surface Treatment & Contact Assay) Solvent: Aceton+2000 ppm rapeseed oil methyl ester (RME)
In order to produce a sufficient, active ingredient containing solution it is necessary to solve the test compound in the solvent-mix (acetone at 2 mg/ml/RME 2000 ppm). This solution is pipetted onto a glazed tile and after evaporation of the acetone, adult mosquitoes of the species Aedes aegypti strain MONHEIM are placed onto the dried surface. The exposure time is 30 minutes. Mortality in percent (%) is determined 24 hours after contact of the insects to the treated surface. 100% mortality means that all tested insects are dead, whereas 0% means that no insect died.

In assay [8] the test system is Musca domestica strain WHO—N. Kind of assay: Musca domestica test (MUSCDO surface treatment & contact assay). Conditions: exposure 30 minutes, 24 hours after contact, read-out: efficacy (mortality); for mortality at 20 mg/m2: surface concentration 20 mg/m^2, glazed tile. The method, then:
Musca domestica Test (MUSCDO Surface Treatment & Contact Assay) Solvent: Aceton+2000 ppm rapeseed oil methyl ester (RME)
In order to produce a sufficient, active ingredient containing solution it is necessary to solve the test compound in the solvent-mix (acetone at 2 mg/ml/RME 2000 ppm). This solution is pipetted onto a glazed tile and after evaporation of the acetone, adult flies of the species Musca domestica strain WHO—N are placed onto the dried surface. The exposure time is 30 minutes. Mortality in percent (%) is determined 24 hours after contact of the insects to the treated surface. 100% mortality means that all tested insects are dead, whereas 0% means that no insect died.

In assay [9] the test system is Rhipicephalus sanguineus. Kind of assay: Rhipicephalus sanguineus in-vitro contact test, adult brown dog ticks (RHIPSA Cont). Conditions: 48 h, after 48 hours, read-out: activity (efficacy: 100% means all ticks are dead or moribund); for pest or weed control at 5 µg/cm2, 500 g/ha: application rate 5 μg/cm^2 (=500 g/ha). The method, then:
Rhipicephalus sanguineus-In-Vitro Contact Tests with Adult Brown Dog Ticks ([…] Cont) 9 mg compound is solved in 1 mL acetone and diluted with acetone to the desired concentration. 250 μL of the test solution is filled in 25 mL glass test tubes and homogeneously distributed on the inner walls by rotation and tilting on a shaking device (2 h at 30 rpm). […] After 48 hours efficacy is determined. The ticks are patted on the ground of the tubes and are incubated on a heating plate at 45-50° C. for at most 5 minutes. Immotile or uncoordinated moving ticks, which are not able to escape the heat by climbing upwards, are marked as dead or moribund.

With `CC(NC(=O)c1cc(Cl)cc(C(F)(F)F)c1)c1nc(C(F)F)nn1-c1ccc(C#N)cn1` (racemic) [I-9], in [1], the pest or weed control at 0.004 mg turned out to be 100% and the pest or weed control at 0.02 mg is 100%. In addition, the pest or weed control at 5 µg/cm2 in assay [2] is 100%. Moreover, the mortality (commonly the share of the test organisms that died) at 100 ppm in assay [3] is 100%. In assay [4], the pest or weed control at 32 µg/disc, 100 g/ha is 100% and the pest or weed control at 160 µg/disc, 500 g/ha worked out at 100%. Further, the mortality at 4 ppm in assay [5] turned out to be 100%. Also, the mortality at 100 g/ha in assay [6] stood at 100%. In assay [7], the mortality at 4 mg/m2 lay within 80 to 100% and the mortality at 20 mg/m2 was 80 to 100%. For the same compound, the mortality at 20 mg/m2 in assay [8] fell in the range of 80 to 100%.
In the case of `COc1nc([C@H](C)NC(=O)c2cc(Cl)cc(C(F)(F)F)c2)n(-c2ccc(C#N)cn2)n1` [I-10, 3-chloro-N-{(1S)-1-[1-(5-cyanopyridin-2-yl)-3-methoxy-1H-1,2,4-triazol-5-yl]ethyl}-5-(trifluoromethyl)benzamide], in [1], the pest or weed control at 0.004 mg came to 100% and the pest or weed control at 0.02 mg was 100%. Further, the pest or weed control at 5 µg/cm2 in [2] was determined as 100%. For the same compound, in assay [3], the mortality at 100 ppm was 100%. For the same compound, in assay [4], the pest or weed control at 32 µg/disc, 100 g/ha was 100% and the pest or weed control at 160 µg/disc, 500 g/ha amounted to 100%. Besides, the mortality at 4 ppm in assay [5] was determined as 100%. In addition, in assay [6], the mortality at 100 g/ha came to 100% and the mortality at 500 g/ha was 100%. The mortality at 20 mg/m2 in assay [8] was 80 to 100%.
Turning to `C[C@H](NC(=O)c1cc(Br)cc(C(F)(F)F)c1)c1nc(C2CC2)nn1-c1ccc(C#N)cn1` [I-31], in [1], the pest or weed control at 0.004 mg worked out at 100% and the pest or weed control at 0.02 mg is 100%. The pest or weed control at 5 µg/cm2 in assay [2] worked out at 100%. For the same compound, the mortality at 100 ppm in assay [3] was determined as 100%. Moreover, in assay [9], the pest or weed control at 5 µg/cm2, 500 g/ha came out at 80%. The pest or weed control at 32 µg/disc, 100 g/ha in [4] was found to be 100%. Further, the mortality at 4 ppm in [5] was determined as 100%. In addition, the mortality at 20 mg/m2 in assay [8] fell in the range of 80 to 100%.
For the compound `C[C@H](NC(=O)c1cc(Cl)cc(Br)c1)c1nc(C2CC2)nn1-c1ccc(C#N)cn1` [I-32], in assay [1], the pest or weed control at 0.004 mg came out at 100% and the pest or weed control at 0.02 mg stood at 100%. Further, in assay [2], the pest or weed control at 5 µg/cm2 came out at 100%. Also, the mortality at 100 ppm in assay [3] came to 100%. The pest or weed control at 1 µg/cm2, 100 g/ha in [9] (application rate 1 μg/cm^2 (=100 g/ha)) was found to be 80%. In [9], the pest or weed control at 5 µg/cm2, 500 g/ha was 100%. The pest or weed control at 32 µg/disc, 100 g/ha in assay [4] was 100%. Besides, the mortality at 4 ppm in [5] was found to be 100%. In [6], the mortality at 100 g/ha was found to be 100%.
In the case of `C[C@H](NC(=O)c1cc(Cl)cc(OC(F)F)c1)c1nc(C2CC2)nn1-c1ccc(C#N)cn1` [I-34], in assay [1], the pest or weed control at 0.004 mg was found to be 100% and the pest or weed control at 0.02 mg was found to be 100%. The pest or weed control at 5 µg/cm2 in assay [2] worked out at 90%. Besides, the mortality at 100 ppm in assay [3] was 100%. Also, in assay [4], the pest or weed control at 32 µg/disc, 100 g/ha amounted to 100%. Further, the mortality at 100 g/ha in [6] was 100%. Also, the mortality at 20 mg/m2 in [8] was 80 to 100%.
For the compound `C[C@H](NC(=O)c1cc(Br)cc(C#N)c1)c1nc(C2CC2)nn1-c1ccc(C#N)cn1` [I-35], in assay [1], the pest or weed control at 0.004 mg came out at 100% and the pest or weed control at 0.02 mg stood at 100%. Also, the pest or weed control at 5 µg/cm2 in assay [2] was 100%. Moreover, the mortality at 100 ppm in [3] worked out at 100%. Moreover, the pest or weed control at 32 µg/disc, 100 g/ha in assay [4] stood at 100%. The mortality at 20 mg/m2 in assay [7] was in the range of 80 to 100%. The mortality at 20 mg/m2 in [8] lay in the range of 80 to 100%.
As for `C[C@H](NC(=O)c1cc(C#N)cc(C(F)(F)F)c1)c1nc(C2CC2)nn1-c1ccc(C#N)cn1` [I-44], in assay [1], the pest or weed control at 0.004 mg worked out at 100%. Further, the pest or weed control at 5 µg/cm2 in [2] is 100%. The mortality at 100 ppm in assay [3] turned out to be 100%. Further, the pest or weed control at 32 µg/disc, 100 g/ha in [4] was 100%. For the same compound, the mortality at 0.8 ppm in assay [5] is 90%. Also, the mortality at 100 g/ha in assay [6] is 100%. In addition, the mortality at 4 mg/m2 in [7] lay within 80 to 100%; in [8] (surface concentration 4 mg/m^2, glazed tile) it was 80 to 100%. In addition, the mortality at 20 mg/m2 in assay [7] and in assay [8] was 80 to 100% each time.

These data come from patent US20220274947A1, “NOVEL HETEROARYL-TRIAZOLE COMPOUNDS AS PESTICIDES” (Bayer Aktiengesellschaft, priority 2019, published 2022).
